In ChEMBL document CHEMBL1255271, “Determinants of in vitro drug susceptibility testing of Plasmodium vivax” (Antimicrob Agents Chemother, 2008):

Legend:
[1] = test system: Plasmodium vivax; test: Antimicrobial activity against Plasmodium vivax at the ring stage measured within 30 hrs by microscopy; type: functional, organism-based
[2] = test system: Plasmodium vivax; test: Antimicrobial activity against Plasmodium vivax trophozoites by microscopy; type: functional, organism-based
[3] = test system: Plasmodium vivax; test: Antimicrobial activity against Plasmodium vivax at the ring stage measured after 30 hrs by microscopy; type: functional, organism-based
[4] = test system: Plasmodium vivax; test: Antimicrobial activity against Plasmodium vivax at the trophozoites by microscopy treated during ring stage; type: functional, organism-based
[5] = test system: Plasmodium vivax; test: Antimicrobial activity against Plasmodium vivax trophozoites measured after 30 hrs by microscopy; type: functional, organism-based
[6] = test system: Plasmodium falciparum; test: microbe, parasite or virus in culture
Description: Antimicrobial activity against Plasmodium falciparum at the ring stage by microscopy

[7] = test system: Plasmodium falciparum; test: microbe, parasite or virus in culture; remark: listed apart in the source
Description: Antimicrobial activity against Plasmodium falciparum trophozoites by microscopy treated during ring stage

[8] = test system: Plasmodium vivax; test: Antimicrobial activity against Plasmodium vivax trophozoites measured within 30 hrs by microscopy; type: functional, organism-based
[9] = test system: Plasmodium vivax; test: Antimicrobial activity against Plasmodium vivax at the ring stage by microscopy; type: functional, organism-based
[10] = test system: Plasmodium vivax; test: Antimicrobial activity against slow-growing synchronous Plasmodium vivax by microscopy
[11] = test system: Plasmodium vivax; test: Antimicrobial activity against fast-growing synchronous Plasmodium vivax by microscopy

Compound	IC50 [1] [µM]	IC50 [3] [µM]	IC50 [5] [µM]	IC50 [8] [µM]	IC50 [10] [µM]	IC50 [11] [µM]	IC50 [2] [µM]	IC50 [4] [µM]	IC50 [6] [µM]	IC50 [7] [µM]	IC50 [9] [µM]
CCN(CC)Cc1cc(Nc2ccnc3cc(Cl)ccc23)ccc1O	0.0234	0.00785	0.0165	0.0189	–	–	0.0221	0.0242	0.0152	0.0082	0.01
Clc1ccc2c(N3CCN(CCCN4CCN(c5ccnc6cc(Cl)ccc56)CC4)CC3)ccnc2c1 [PIPERAQUINE]	0.0312	0.0146	0.0291	0.0229	–	–	–	–	–	–	–
OC(c1cc(C(F)(F)F)nc2c(C(F)(F)F)cccc12)C1CCCCN1 (stereo not given) [MEFLOQUINE]	0.0222	0.00726	0.00727	0.0174	–	–	0.017	0.0125	–	0.0046	0.00639

The next lines start with results.

IC50 [1] [µM]	IC50 [3] [µM]	IC50 [5] [µM]	IC50 [8] [µM]	IC50 [10] [µM]	IC50 [11] [µM]	Compound	IC50 [2] [µM]	IC50 [4] [µM]	IC50 [6] [µM]	IC50 [7] [µM]	IC50 [9] [µM]
0.475	0.0598	0.298	0.539	0.0399	0.435	CCN(CC)CCCC(C)Nc1ccnc2cc(Cl)ccc12 (stereo not given) [CHLOROQUINE]	0.478	2.81	–	–	0.0552
0.0248	0.0376	0.0329	0.0146	–	–	CCCCN(CCCC)CC(O)c1cc(Cl)cc2c1-c1ccc(Cl)cc1/C2=C/c1ccc(Cl)cc1 (stereo not given) [LUMEFANTRINE]	–	–	–	–	–
0.00139	0.00083	0.0012	0.0016	–	–	C[C@H]1[C@H](OC(=O)CCC(=O)O)O[C@@H]2O[C@@]3(C)CC[C@H]4[C@H](C)CC[C@@H]1[C@@]24OO3 [ARTESUNATE]	0.00161	–	–	–	0.00086
